Data published in ChEMBL document CHEMBL1201861, “Genomics of Drug Sensitity in Cancer screening data, Wellcome Trust Sanger Institute”.

Experiments:
Test in all cases: cells
TYK-nu = assay type: functional, cell-based; conditions: Homo sapiens;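 further: growth inhibition of human TYK-nu cells, read out by a cell viability assay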
Description: SANGER: Inhibition of human TYK-nu cell growth in a cell viability assay.

NCI-H2405 = assay type: functional, cell-based; conditions: Homo sapiens;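 further: growth inhibition of the human cell line, read out with a cell viability assay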
Description: SANGER: Inhibition of human NCI-H2405 cell growth in a cell viability assay.

SBC-5 = assay type: functional, cell-based; conditions: Homo sapiens;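 further: cell viability assay read-out, IC50 is the concentration that inhibits growth of the cells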
Description: SANGER: Inhibition of human SBC-5 cell growth in a cell viability assay.

ME-180 = assay type: functional, cell-based; conditions: Homo sapiens;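 further: cell viability assay measuring growth inhibition of ME-180 cells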
Description: SANGER: Inhibition of human ME-180 cell growth in a cell viability assay.

CP50-MEL-B = assay type: functional, cell-based; conditions: Homo sapiens;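 further: growth inhibition of the human cell line, measured with a cell viability read-out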
Description: SANGER: Inhibition of human CP50-MEL-B cell growth in a cell viability assay.

HOP-92 = assay type: functional, cell-based; conditions: Homo sapiens;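 further: cell viability readout, with IC50 reflecting inhibition of HOP-92 cell growth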
Description: SANGER: Inhibition of human HOP-92 cell growth in a cell viability assay.

UACC-893 = assay type: functional, cell-based; conditions: Homo sapiens
Description: SANGER: Inhibition of human UACC-893 cell growth in a cell viability assay.

KP-N-YN = assay type: functional, cell-based; conditions: Homo sapiens;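 further: growth inhibition of KP-N-YN cells, read out with a cell viability assay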
Description: SANGER: Inhibition of human KP-N-YN cell growth in a cell viability assay.

MC-IXC = assay type: functional, cell-based; conditions: Homo sapiens;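 further: growth inhibition of MC-IXC cells, read out with a cell viability assay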
Description: SANGER: Inhibition of human MC-IXC cell growth in a cell viability assay.

639-V = assay type: functional, cell-based; conditions: Homo sapiens;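 further: growth inhibition of 639-V cells, read out with a cell viability assay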
Description: SANGER: Inhibition of human 639-V cell growth in a cell viability assay.

HCC1954 = assay type: functional, cell-based; conditions: Homo sapiens;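 further: growth inhibition of human HCC1954 cells, read out with a cell viability assay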
Description: SANGER: Inhibition of human HCC1954 cell growth in a cell viability assay.

MDA-MB-157 = assay type: functional, cell-based; conditions: Homo sapiens
Description: SANGER: Inhibition of human MDA-MB-157 cell growth in a cell viability assay.

VM-CUB-1 = assay type: functional, cell-based; conditions: Homo sapiens;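 further: cell viability assay measuring growth inhibition of the human VM-CUB-1 cell line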
Description: SANGER: Inhibition of human VM-CUB-1 cell growth in a cell viability assay.

C32 = assay type: functional, cell-based; conditions: Homo sapiens;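 further: cell viability assay, with IC50 reflecting inhibition of C32 cell growth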
Description: SANGER: Inhibition of human C32 cell growth in a cell viability assay.

8305C = assay type: functional, cell-based; conditions: Homo sapiens
Description: SANGER: Inhibition of human 8305C cell growth in a cell viability assay.

EFO-21 = assay type: functional, cell-based; conditions: Homo sapiens;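 further: growth inhibition of EFO-21 cells measured with a viability assay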
Description: SANGER: Inhibition of human EFO-21 cell growth in a cell viability assay.

A-431 = assay type: functional, cell-based; conditions: Homo sapiens;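 further: growth inhibition of A-431 cells, determined with a cell viability read-out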
Description: SANGER: Inhibition of human A431 cell growth in a cell viability assay.

MKN-28 = assay type: functional, cell-based; conditions: Homo sapiens;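 further: cell viability assay read-out, IC50 reflects suppression of growth of human MKN-28 cells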
Description: SANGER: Inhibition of human MKN28 cell growth in a cell viability assay.

HuO-3N1 = assay type: functional, cell-based; conditions: Homo sapiens;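 further: cell viability readout used to measure how strongly compounds suppress proliferation of human HuO-3N1 cells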
Description: SANGER: Inhibition of human HuO-3N1 cell growth in a cell viability assay.

SCC-4 = assay type: functional, cell-based; conditions: Homo sapiens;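 further: growth inhibition of human SCC-4 cells, read out as cell viability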
Description: SANGER: Inhibition of human SCC-4 cell growth in a cell viability assay.

T-24 = assay type: functional, cell-based; conditions: Homo sapiens;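 further: growth inhibition of T-24 cells, read out with a cell viability assay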
Description: SANGER: Inhibition of human T-24 cell growth in a cell viability assay.

SW48 = assay type: functional, cell-based; conditions: Homo sapiens;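 further: growth inhibition of SW48 cells, read out with a cell viability assay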
Description: SANGER: Inhibition of human SW48 cell growth in a cell viability assay.

Detroit 562 = assay type: functional, cell-based; conditions: Homo sapiens;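 further: growth inhibition of human Detroit 562 cells, read out by a cell viability assay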
Description: SANGER: Inhibition of human Detroit562 cell growth in a cell viability assay.

A204 = assay type: functional, cell-based; conditions: Homo sapiens;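 further: growth inhibition of human A204 cells, read out with a cell viability assay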
Description: SANGER: Inhibition of human A204 cell growth in a cell viability assay.

MKN-7 = assay type: functional, cell-based; conditions: Homo sapiens;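 further: growth inhibition of MKN-7 cells, read out with a cell viability assay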
Description: SANGER: Inhibition of human MKN7 cell growth in a cell viability assay.

MOLT-13 = assay type: functional, cell-based; conditions: Homo sapiens;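 further: IC50 for suppression of MOLT-13 cell growth, read out with a cell viability assay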
Description: SANGER: Inhibition of human MOLT-13 cell growth in a cell viability assay.

HuTu80 = assay type: functional, cell-based, Homo sapiens, HUTU-80; conditions: Homo sapiens, HuTu80;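 further: growth inhibition of HuTu80 human cells, determined with a cell viability readout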
Description: SANGER: Inhibition of human HUTU-80 cell growth in a cell viability assay.

BEN = assay type: functional, cell-based; conditions: Homo sapiens;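 further: growth inhibition of the BEN cell line, read out with a cell viability assay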
Description: SANGER: Inhibition of human BEN cell growth in a cell viability assay.

LN-405 = assay type: functional, cell-based; conditions: Homo sapiens
Description: SANGER: Inhibition of human LN-405 cell growth in a cell viability assay.

786-0 = assay type: functional, cell-based; conditions: Homo sapiens
Description: SANGER: Inhibition of human 786-0 cell growth in a cell viability assay.

NCI-H2009 = assay type: functional, cell-based; conditions: Homo sapiens;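 further: cell viability assay measuring inhibition of NCI-H2009 cell growth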
Description: SANGER: Inhibition of human NCI-H2009 cell growth in a cell viability assay.

RO82-W-1 = assay type: functional, cell-based; conditions: Homo sapiens;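 further: growth inhibition of human RO82-W-1 cells, measured with a cell viability assay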
Description: SANGER: Inhibition of human RO82-W-1 cell growth in a cell viability assay.

MEL-JUSO = assay type: functional, cell-based; conditions: Homo sapiens;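 further: growth inhibition of human MEL-JUSO cells, read out with a cell viability assay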
Description: SANGER: Inhibition of human MEL-JUSO cell growth in a cell viability assay.

SN12C = assay type: functional, cell-based; conditions: Homo sapiens;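 further: growth inhibition of human SN12C cells, measured by a cell viability assay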
Description: SANGER: Inhibition of human SN12C cell growth in a cell viability assay.

G-361 = assay type: functional, cell-based; conditions: Homo sapiens
PANC-03-27 = assay type: functional, cell-based; conditions: Homo sapiens
Description: SANGER: Inhibition of human PANC-03-27 cell growth in a cell viability assay.

COLO-741 = assay type: functional, cell-based; conditions: Homo sapiens
Description: SANGER: Inhibition of human COLO-741 cell growth in a cell viability assay.

Calu-3 = assay type: functional, cell-based; conditions: Homo sapiens;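 further: growth inhibition of human Calu-3 cells, determined with a cell viability assay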
Description: SANGER: Inhibition of human Calu-3 cell growth in a cell viability assay.

UO-31 = assay type: functional, cell-based; conditions: Homo sapiens;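 further: cell viability assay measuring inhibition of cell growth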
Description: SANGER: Inhibition of human U031 cell growth in a cell viability assay.

Panc1005 = assay type: functional, cell-based; conditions: Homo sapiens;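 further: growth inhibition of human PANC-10-05 cells, measured by a cell viability assay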
Description: SANGER: Inhibition of human PANC-10-05 cell growth in a cell viability assay.

SiHa = assay type: functional, cell-based; conditions: Homo sapiens;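 further: Viability-based readout of growth inhibition in SiHa cells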
Description: SANGER: Inhibition of human SiHa cell growth in a cell viability assay.

KYSE-410 = assay type: functional, cell-based; conditions: Homo sapiens;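 further: growth inhibition of KYSE-410 cells, measured through a cell viability readout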
Description: SANGER: Inhibition of human KYSE-410 cell growth in a cell viability assay.

HuP-T3 = assay type: functional, cell-based; conditions: Homo sapiens;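 further: HuP-T3 cell growth inhibition, read out with a cell viability assay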
Description: SANGER: Inhibition of human HuP-T3 cell growth in a cell viability assay.

NCI-H810 = assay type: functional, cell-based; conditions: Homo sapiens;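 further: IC50 reflects inhibition of cancer cell line growth, read out with a cell viability assay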
Description: SANGER: Inhibition of human NCI-H810 cell growth in a cell viability assay.

ABC-1 = assay type: functional, cell-based; conditions: Homo sapiens;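 further: growth inhibition of human ABC-1 cells, read out by a cell viability assay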
Description: SANGER: Inhibition of human ABC-1 cell growth in a cell viability assay.

MEL-HO = assay type: functional, cell-based; conditions: Homo sapiens
Description: SANGER: Inhibition of human MEL-HO cell growth in a cell viability assay.

EW-22 = assay type: functional, cell-based; conditions: Homo sapiens;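 further: growth inhibition of the EW-22 cell line, measured with a cell viability readout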
Description: SANGER: Inhibition of human EW-22 cell growth in a cell viability assay.

CN(NC(=O)CC(=O)NN(C)C(=S)c1ccccc1)C(=S)c1ccccc1 [ELESCLOMOL]
IC50 (TYK-nu): 12.4 nM
IC50 (NCI-H2405): 51 nM
IC50 (SBC-5): 21.6 nM
IC50 (ME-180): 16.2 nM
IC50 (CP50-MEL-B): 8.63 nM
IC50 (HOP-92): 12.7 nM
IC50 (UACC-893): > 200 nM
IC50 (KP-N-YN): 65.6 nM
IC50 (MC-IXC): 7.17 nM
IC50 (639-V): 16.7 nM
IC50 (HCC1954): > 200 nM
IC50 (MDA-MB-157): 2.92 nM
IC50 (VM-CUB-1): 12.7 nM
IC50 (C32): 26.3 nM
IC50 (8305C): 192 nM
IC50 (EFO-21): 149 nM
IC50 (A-431): 126 nM
IC50 (MKN-28): 14 nM
IC50 (HuO-3N1): 24 nM
IC50 (SCC-4): > 200 nM
IC50 (T-24): 1.55 nM
IC50 (SW48): 108 nM
IC50 (Detroit 562): 68.9 nM
IC50 (A204): 8.85 nM
IC50 (MKN-7): 61 nM
IC50 (MOLT-13): > 200 nM
IC50 (HuTu80): 0.791 nM
IC50 (BEN): 116 nM
IC50 (LN-405): 87.8 nM
IC50 (786-0): 12.9 nM
IC50 (NCI-H2009): > 200 nM
IC50 (RO82-W-1): 26.2 nM
IC50 (MEL-JUSO): 10.6 nM
IC50 (SN12C): 28.4 nM
IC50 (G-361): 27.5 nM
IC50 (PANC-03-27): 39.9 nM
IC50 (COLO-741): 176 nM
IC50 (Calu-3): > 200 nM
IC50 (UO-31): 13.4 nM
IC50 (Panc1005): 110 nM
IC50 (SiHa): 31.1 nM
IC50 (KYSE-410): 19.7 nM
IC50 (HuP-T3): 55.8 nM
IC50 (NCI-H810): 125 nM
IC50 (ABC-1): 0.365 nM
IC50 (MEL-HO): > 200 nM
IC50 (EW-22): 74.7 nM

CC1=C(/C=C/C(C)=C/C=C/C(C)=C/C(=O)O)C(C)(C)CCC1 [TRETINOIN]
IC50 (TYK-nu): > 10000 nM
IC50 (NCI-H2405): > 10000 nM
IC50 (SBC-5): > 10000 nM
IC50 (ME-180): > 10000 nM
IC50 (CP50-MEL-B): > 10000 nM
IC50 (HOP-92): > 10000 nM
IC50 (UACC-893): > 10000 nM
IC50 (KP-N-YN): > 10000 nM
IC50 (MC-IXC): 154 nM
IC50 (639-V): > 10000 nM
IC50 (HCC1954): > 10000 nM
IC50 (MDA-MB-157): > 10000 nM
IC50 (VM-CUB-1): > 10000 nM
IC50 (C32): > 10000 nM
IC50 (8305C): > 10000 nM
IC50 (EFO-21): > 10000 nM
IC50 (A-431): > 10000 nM
IC50 (MKN-28): > 10000 nM
IC50 (HuO-3N1): 832 nM
IC50 (SCC-4): > 10000 nM
IC50 (T-24): > 10000 nM
IC50 (SW48): > 10000 nM
IC50 (Detroit 562): > 10000 nM
IC50 (A204): > 10000 nM
IC50 (MKN-7): > 10000 nM
IC50 (MOLT-13): 1150 nM
IC50 (HuTu80): > 10000 nM
IC50 (BEN): > 10000 nM
IC50 (LN-405): > 10000 nM
IC50 (786-0): > 10000 nM
IC50 (NCI-H2009): > 10000 nM
IC50 (RO82-W-1): > 10000 nM
IC50 (MEL-JUSO): > 10000 nM
IC50 (SN12C): > 10000 nM
IC50 (G-361): > 10000 nM
IC50 (PANC-03-27): > 10000 nM
IC50 (COLO-741): > 10000 nM
IC50 (Calu-3): > 10000 nM
IC50 (UO-31): > 10000 nM
IC50 (Panc1005): > 10000 nM
IC50 (SiHa): > 10000 nM
IC50 (KYSE-410): > 10000 nM
IC50 (HuP-T3): > 10000 nM
IC50 (NCI-H810): > 10000 nM
IC50 (ABC-1): > 10000 nM
IC50 (MEL-HO): > 10000 nM
IC50 (EW-22): > 10000 nM

NC(=O)c1ccc(N(C(N)=O)c2c(F)cccc2F)nc1-c1ccc(F)cc1F [VX-702]
IC50 (TYK-nu): > 2000 nM
IC50 (NCI-H2405): > 2000 nM
IC50 (SBC-5): > 2000 nM
IC50 (ME-180): > 2000 nM
IC50 (CP50-MEL-B): > 2000 nM
IC50 (HOP-92): > 2000 nM
IC50 (UACC-893): > 2000 nM
IC50 (KP-N-YN): > 2000 nM
IC50 (MC-IXC): > 2000 nM
IC50 (639-V): > 2000 nM
IC50 (HCC1954): > 2000 nM
IC50 (MDA-MB-157): > 2000 nM
IC50 (VM-CUB-1): > 2000 nM
IC50 (C32): > 2000 nM
IC50 (8305C): > 2000 nM
IC50 (EFO-21): > 2000 nM
IC50 (A-431): > 2000 nM
IC50 (MKN-28): > 2000 nM
IC50 (HuO-3N1): > 2000 nM
IC50 (SCC-4): > 2000 nM
IC50 (T-24): > 2000 nM
IC50 (SW48): > 2000 nM
IC50 (Detroit 562): > 2000 nM
IC50 (A204): > 2000 nM
IC50 (MKN-7): > 2000 nM
IC50 (MOLT-13): 160 nM
IC50 (HuTu80): > 2000 nM
IC50 (BEN): > 2000 nM
IC50 (LN-405): > 2000 nM
IC50 (786-0): > 2000 nM
IC50 (NCI-H2009): > 2000 nM
IC50 (RO82-W-1): > 2000 nM
IC50 (MEL-JUSO): > 2000 nM
IC50 (SN12C): > 2000 nM
IC50 (G-361): 1500 nM
IC50 (PANC-03-27): > 2000 nM
IC50 (COLO-741): > 2000 nM
IC50 (Calu-3): > 2000 nM
IC50 (UO-31): > 2000 nM
IC50 (Panc1005): > 2000 nM
IC50 (SiHa): > 2000 nM
IC50 (KYSE-410): > 2000 nM
IC50 (HuP-T3): > 2000 nM
IC50 (NCI-H810): > 2000 nM
IC50 (ABC-1): > 2000 nM
IC50 (MEL-HO): > 2000 nM
IC50 (EW-22): > 2000 nM
